Consider five molecules from patent US9700516B2, “Compositions and methods for reducing overdose” (priority 2014, dated 2017).

The structures appear in SMILES notation.

A short description of the series: Effect of alkalinizing agents on the pH of a solution of 0.1 N HCl with a starting pH of 2.0. Type of series: physicochemical. As to the method:
Various alkalinizing agents were added to a solution of 0.1 N HCl with a starting pH of 2.0 and the pH of the solution was tested at different time points.

In the case of `Cl.N=C(N)NCCC[C@H](N)C(=O)O` [Arginine HCl, L-arginine-HCl], the pH (100 mg in 200 ml, 10 min) amounted to 2.20; the pH (100 mg in 200 ml, 20 min) came to 2.20; the pH (100 mg in 200 ml, 30 min) was determined as 2.20; the pH (100 mg in 200 ml, 40 min) is 2.20; the pH (100 mg in 200 ml, 50 min) came out at 2.20; the pH (100 mg in 200 ml, 60 min) is reported as 2.20.
Consider `O=C([O-])O.[Na+]` [sodium bicarbonate], for which the pH reads like this: (20 mg per 320 mL, 0 min) 2.02; (20 mg per 320 mL, 1 min) 2.04; (20 mg per 320 mL, 2 min) 2.05; (20 mg per 320 mL, 3 min) 2.05; (20 mg per 320 mL, 4 min) 2.05; (20 mg per 320 mL, 5 min) 2.05. For the same molecule, the pH (20 mg per 320 mL, 6 min) is on record as 2.05; the pH (20 mg per 320 mL, 7 min) worked out at 2.05; the pH (20 mg per 320 mL, 8 min) was 2.05; the pH (20 mg per 320 mL, 9 min) is reported as 2.05; the pH (20 mg per 320 mL, 10 min) was determined as 2.05; the pH (20 mg per 320 mL, 20 min) came out at 2.05. Further, the pH is, setting by setting: (20 mg per 320 mL, 30 min) 2.05; (20 mg per 320 mL, 40 min) 2.05; (20 mg per 320 mL, 50 min) 2.05; (20 mg per 320 mL, 60 min) 2.05; (40 mg per 320 mL, 0 min) 2.05; (40 mg per 320 mL, 1 min) 2.08. This molecule returned a pH (40 mg per 320 mL, 2 min) of 2.08; a pH (40 mg per 320 mL, 3 min) of 2.08; a pH (40 mg per 320 mL, 4 min) of 2.08; a pH (40 mg per 320 mL, 5 min) of 2.09; a pH (40 mg per 320 mL, 6 min) of 2.09; a pH (40 mg per 320 mL, 7 min) of 2.09. For the same molecule, the pH is reported as 2.09 (40 mg per 320 mL, 8 min); 2.09 (40 mg per 320 mL, 9 min); 2.09 (40 mg per 320 mL, 10 min); 2.09 (40 mg per 320 mL, 20 min); 2.09 (40 mg per 320 mL, 30 min); 2.09 (40 mg per 320 mL, 40 min). For the same molecule, the pH is, setting by setting: (40 mg per 320 mL, 50 min) 2.09; (40 mg per 320 mL, 60 min) 2.09; (50 mg/200 ml, 0 min) 1.71; (50 mg/200 ml, 10 min) 1.72; (50 mg/200 ml, 20 min) 1.72; (50 mg/200 ml, 30 min) 1.72. The pH reads like this: (50 mg/200 ml, 40 min) 1.72; (100 mg/200 ml, 0 min) 1.71; (100 mg/200 ml, 10 min) 1.76; (100 mg/200 ml, 20 min) 1.75; (100 mg/200 ml, 30 min) 1.75; (100 mg/200 ml, 40 min) 1.75. Also, the “effect on pH of the solution” value (20 mg/320 ml and 40 mg/320 ml, 60 minute timecourse) is given as “neither amount tested was sufficient to raise the pH to neutral or higher”; the “effect on pH of the solution” value (50 and 100 mg/200 ml, 40 minute timecourse) was “neither tested amount was sufficient to raise the pH”. For the same molecule, where the note is “all tested amounts, over the times tested”, the “pH of the solution” value is “above 2.0”.
As for `O=C([O-])CC(O)(CC(=O)[O-])C(=O)[O-].[Na+].[Na+].[Na+]` [Sodium Citrate, sodium citrate], the pH came out at 5.53 (930 mg in 200 ml, 10 min); 5.53 (930 mg in 200 ml, 20 min); 5.53 (930 mg in 200 ml, 30 min); 5.53 (930 mg in 200 ml, 40 min); 5.53 (930 mg in 200 ml, 50 min); 5.53 (930 mg in 200 ml, 60 min).
As for `CCCCCCCCCCCCOS(=O)(=O)[O-].[Na+]` [sodium lauryl sulfate], the pH by setting is: (10 mg (10.22 mg actual) in 200 ml, 0 min) 2.67; (10 mg (10.22 mg actual) in 200 ml, 1 min) 2.68; (10 mg (10.22 mg actual) in 200 ml, 2 min) 2.68; (10 mg (10.22 mg actual) in 200 ml, 3 min) 2.68; (10 mg (10.22 mg actual) in 200 ml, 4 min) 2.67; (10 mg (10.22 mg actual) in 200 ml, 5 min) 2.67. Moreover, the pH came to 2.67 (10 mg (10.22 mg actual) in 200 ml, 6 min); 2.67 (10 mg (10.22 mg actual) in 200 ml, 7 min); 2.67 (10 mg (10.22 mg actual) in 200 ml, 8 min); 2.67 (10 mg (10.22 mg actual) in 200 ml, 9 min); 2.67 (10 mg (10.22 mg actual) in 200 ml, 10 min); 2.67 (10 mg (10.22 mg actual) in 200 ml, 20 min). Further, the pH (10 mg (10.22 mg actual) in 200 ml, 30 min) is 2.67. Further, the “effect on pH of the solution” value (10 mg in 200 ml, 30 minute timecourse) was “insufficient to substantially raise the pH of the solution”.
Regarding `O=C([O-])[O-].[Mg+2]` [Magnesium Carbonate, magnesium carbonate], the pH came to 2.73 (80 mg in 200 ml, 0 min); 4.78 (80 mg in 200 ml, 1 min); 6.09 (80 mg in 200 ml, 2 min); 6.57 (80 mg in 200 ml, 3 min); 7.44 (80 mg in 200 ml, 4 min); 8.64 (80 mg in 200 ml, 5 min). For the same molecule, the pH (80 mg in 200 ml, 6 min) stood at 8.92; the pH (80 mg in 200 ml, 7 min) was 9.03; the pH (80 mg in 200 ml, 8 min) was 9.09; the pH (80 mg in 200 ml, 9 min) turned out to be 9.13; the pH (80 mg in 200 ml, 10 min) is given as 9.17; the pH (80 mg in 200 ml, 20 min) came to 9.26. The pH (80 mg in 200 ml, 30 min) is recorded as 9.26; the pH (100 mg in 200 ml, 10 min) is given as 3.05; the pH (100 mg in 200 ml, 20 min) is given as 3.05; the pH (100 mg in 200 ml, 30 min) worked out at 3.05; the pH (100 mg in 200 ml, 40 min) was 3.05; the pH (100 mg in 200 ml, 50 min) worked out at 3.05. Besides, the pH (100 mg in 200 ml, 60 min) is on record as 3.05. Moreover, under “80 mg in 200 ml, 30 minute timecourse”, the “pH of the solution” value was “above 9”.
